Where two headings read alike, the source gives them in different places.

Test in all cases: pAKT (T308) ELISA Assay
Holding throughout (format): cell-based

Test [1] has as its system pAKT (T308) in T-47D cells (PI3Kα H1047R). Conditions: Homo sapiens, T47D, IGF1 stimulation. The protocol: (§1) In another embodiment, the pAKT ELISA Assay was performed by seeding cells onto 96-well plates (Corning, 3904) in their respective growth media at the densities listed in Table 5. Cells were incubated at 37° C., 5% CO2 for 48 h (except MDA-MB-453 cells which were cultured in the absence of CO2). Compounds were serially diluted in DMSO and subsequently diluted in serum-free DMEM. Test compounds were added to cells in serum-free DMEM at a final concentration of 0.3% DMSO and incubated for 3 h. Cells were lysed with 130 μL of ice-cold RIPA lysis buffer (50 mM Tris-HCl, pH 7.5; 0.5% sodium deoxycholic acid; 1% Triton X-100; 0.1% SDS; 150 mM NaCl) with protease and phosphatase inhibitors (1 mM EDTA, 1 mM NaF, 20 mM β-glycerophosphate, 1 mM Na-orthovanadate, Complete-Mini EDTA-free, Roche, 11836170001, and Phosphatase Inhibitor Cocktail I, Sigma, P2850), directly in 96-well plates. Cells were lysed on ice for 60-120 min at 4° C. The supernatants were added directly to capture ELISA plates previously pre-coated with rabbit anti-AKT capture antibody. ELISA assays for pAKT(T308) and total AKT were performed with the pAKT(T308) ELISA kit (Cell Signaling Technology, 7144) and AKT1 ELISA kit (Cell Signaling Technology, 7142). For the pAKT(T308) ELISA, 85 μL of cell lysate was added to each well. For the total AKT1 ELISA, 15 μL of cell lysate and 85 μL of Starting Block buffer (Pierce, 37543) were added to each well. The plates were incubated overnight at 4° C. with gentle shaking, then washed 3 times with 200 μL of TBST (20 mM Tris, pH 7.4; 150 mM NaCl; 0.1% Tween 20) for 30 s each, and incubated for 1 h with 100 μL of detection antibody (mouse anti-pAKT(T308) antibody or mouse anti-AKT1 antibody). After 3 washes with TBST, the plates were incubated with a 1:1000 dilution of a horseradish peroxidase-labeled anti-mouse IgG (Cell Signaling Technology, 7076) in 100 μL of Starting Block buffer for 0.5 h. After 3 washes with TBST, 50 μL of SuperSignal ELISA Femto substrate solution (Thermo Scientific, 37075A) and 50 μL of SuperSignal ELISA enhancer solution mixture (Thermo Scientific, 37075B) were added to each well and the plates were incubated for approximately 2 min and protected from light. The wells were measured for luminescence using a Wallac plate reader at wavelength of 560 nm. After normalization of pAKT signal to total AKT1 signal, IC50 values were determined relative to the DMSO-treated control.

In test [2] the test system is pAKT (T308) in SK-BR-3 cells (PI3Kα wt). The following applies: Homo sapiens, heregulin stimulation, read-out: Cellular pAKT (T308) IC50 PI3Kαwt SK-BR-3 hereg. How it is done:
as §1

Test [3] concerns pAKT (T308) in MDA-MB-453 cells (PI3Kα H1047R). The following applies: Homo sapiens, heregulin stimulation, read-out: Cellular pAKT (T308) IC50 PI3KαH1047R MDA-MB-453 hereg. The protocol: as §1
For test [4], the system named is pAKT (T308) in HCT 116 cells (PI3Kα H1047R). Conditions: Homo sapiens, IGF1 stimulation, read-out: Cellular pAKT (T308) IC50 PI3KαH1047R HCT 116 IGF1. How it is done: as §1
Where [5] appears, read: read-out: Cellular pAKT (T308) IC50 PI3KαH1047R T-47D IGF1.
Setting [6] is: read-out: pAKT (T308) IC50 T-47D PI3Kα H1047R IGF1.

Turning to `CCNc1nc2ccc(-c3ccc4c(c3)CN(c3ncnc(NCC)c3C)CCO4)cc2[nH]1` [Compound 699], the IC50 in test [1] (setting [5]) turned out to be 207 nM; in test [1] (setting [6]), 207 nM; in test [2] it was 4540 nM; in test [3], 639 nM; in test [4], 719 nM.

On to `COc1ccc2c(N3CCOc4ccc(-c5cnc6nc(C)[nH]c6c5)cc4C3)nc(CN(C)C)nc2c1` [Compound 696], for which the IC50 amounted to 213 nM in test [1] (setting [5]); 213 nM in test [1] (setting [6]); 1240 nM in test [2]; 117 nM in test [3]; 400 nM in test [4].

Turning to `CCNc1nc2ccc(-c3ccc4c(c3)CN(c3ccnc5cc(F)ccc35)CCO4)cc2[nH]1` [Compound 698], the IC50 in test [1] (setting [5]) is 258 nM; in test [1] (setting [6]), 258 nM; in test [2], 2860 nM; in test [3], 118 nM; in test [4], 462 nM.

`Cc1nc2ncc(-c3ccc4c(c3)CN(c3nc(CN(C)C)nc5c3CC(C)(C)CC5)CCO4)cc2[nH]1` [Compound 693]: the IC50 came to 73 nM in test [1] (setting [5]); 73 nM in test [1] (setting [6]); 339 nM in test [2]; 40 nM in test [3]; 168 nM in test [4].

Regarding `Cc1nc2cc(-c3ccc4c(c3)CN(c3nc(CN(C)C)nc(C)c3C(C)C)CCO4)cnc2[nH]1` [Compound 694], the IC50 in test [1] (setting [5]) turned out to be 102 nM; in test [1] (setting [6]) it was 102 nM; in test [2], 115 nM; in test [3], 18 nM; in test [4], 130 nM.

The values above are taken from patent publication US20140080810A1 (Exelixis, Inc., priority 2010, published 2014).
